Results published in US8809319B2, “Substituted 8-oxa-10,11-dihydroimidazo[2,3-a]bicyclo[3.2.1]oct-3-enes and use thereof as an insecticide” (priority 2009, dated 2014).
In brackets after ≈: the same amount, converted by molar mass. Where two headings read alike, the source gives them in different places.

Experiments:
[1] = tested on: Aphis craccivora; assay: Insecticidal activity against aphids, dipping method; type: in vivo; conditions: for LC50 / mortality at 500 µg/mL: Aphis craccivora; for mortality at 500 µg/mL: read-out: Aphis craccivora Mortality rate (%, 500 mg L^−1)
Protocol: Aphids, which belong to the Homoptera and have piercing-sucking mouth parts, are a common pest for agricultural crops. Aphis craccivora was used as the subject, and a dipping method was employed for testing.
Testing method: Each sample was precisely weighed, and 2 mL of DMSO and 18 mL of water were added respectively; then, three drops of the emulsion agent 200I were added to form a testing liquid; a blank was also prepared by adding three drops of emulsion agent 220I to 2 mL of DMSO and 18 mL of water. Broad bean leaves adhered by a certain number of insects were immersed in the testing liquid for three to five seconds, then removed and air-dried; the insects were moved into a clean container together with feed, and the container was placed in a dry, thermostatic recovery room. After 24 hours, the number of dead insects was checked.

[2] = tested on: Pseudaletia separata Walker; assay: Insecticidal activity against armyworms, leaf-dipping method; type: in vivo; conditions: for LC50 / mortality at 500 µg/mL: Mythimna separata; for mortality at 500 µg/mL: read-out: Pseudaletia separata Walker Mortality rate (%, 500 mg L^−1)
Text: Second instar Pseudaletia separata Walker larvae were used as the subjects and the dipping method was employed for testing.
Pseudaletia separata Walker, which is a very important lepidopterans pest of various grains, can be suitably used in various of applications, for example, in the study of toxicity, such as the stomach toxicity, contact poisoning, comprehensive and residual effects of insecticides, and other aspects of insect toxicology, as well as the screen test for new compounds. Pseudaletia separata Walker extermination activity was tested in accordance with a method reported in the literature.
Operation procedure of the leaf-dipping method: Each sample was precisely weighed, and 2 mL of DMSO and 18 mL of water were added respectively; and then, three drops of the emulsion agent 2001 (procured from Shanghai Nongyaochang Co., Ltd.) were added to form the test liquid. A blank was also formulated by adding three drops of the 2201 emulsion agent to 2 mL of DMSO and […]. Fresh corn leaves were torn into small pieces and immersed for about five seconds in the liquid, then removed, air-dried, and placed in a 100-mL jar. About 20 2nd instar larvae were introduced into the jar. The jar was closed using white gauze and a rubber band, and the larvae were fed with corn soaked with the liquid continuously. The mortality rate of the larvae was checked after five days. The requisite temperature was 22° C. to 27° C., humidity 70% to 80%. There was no need to correct the mortality rates for each treatment if the blank mortality rate was 5% or less; however, if the control mortality rate was 5% to 20%, Abbott's correction should be used for the mortality rates for each treatment. Abbott's formula: Corrected mortality rate=[(treated mortality rate−control mortality rate)/(100−control mortality rate)×100].

[3] = tested on: Nilaparvata lugens susceptible strain; assay: Insecticidal activity against Nilaparvata lugens, micro-drip method, susceptible strain; type: in vivo; conditions: for Magnitude of resistance / Relative toxicity / LD50 (ng/pest): susceptible strain; for Relative toxicity: relative to imidacloprid; for LD50 (ng/pest): topical micro-drip, 48 hours
Protocol: (§1) Nilaparvata lugens, which belongs to the Homoptera and has piercing-sucking mouth parts, is a common pest for agricultural crops. Nilaparvata lugens was used as the subject, and the micro-drip measurement method reported by Nagata was employed for testing.
(§2) Operation procedure: Unmated winged females two to three days after eclosion were selected as the test subjects; the compounds were diluted in acetone to a series of concentrations. The insects were paralyzed by carbon dioxide, and the liquid (0.08 μL) was dripped onto the pronotum of the insects using a manual micro-dripper (Burkard Manufacturing Co., Ltd., Rickmansworth, UK). Each of the concentrations was used to treat about 30 insects in triplicate. Acetone was used as the control. The treated adult insects were cultured on rice seedlings grown without soil in an incubator (20×20×10 cm), where the temperature was controlled at 25±1° C. with 16/8 hours of light and dark cycle. The results were checked after 48 hours, and the LD50 was calculated using a standard probability analysis method.

[4] = tested on: Nilaparvata lugens resistant strain; assay: Insecticidal activity against Nilaparvata lugens, micro-drip method, resistant strain; type: in vivo; conditions: for Magnitude of resistance: resistant strain versus susceptible strain; for Relative toxicity / LD50 (ng/pest): resistant strain; for Relative toxicity: relative to imidacloprid; for LD50 (ng/pest): topical micro-drip, 48 hours
Protocol: as §1, §2

[5] = tested on: nicotinic acetylcholine receptors of Periplaneta americana; assay: Mechanism of action, electrophysiological testing on cockroach nAChRs; type: cell-based
Text: (§3) The compound (1a) was separately subjected to electrophysiological testing and isotope marker substitution testing.

[6] = tested on: N1 α 1/β 2 receptors expressed by the oocytes; assay: Mechanism of action, electrophysiological testing on receptors expressed by oocytes; type: cell-based
Text: as §3

[7] = 24 h, read-out: Aphis craccivora LC50 (mmol L^−1)
[8] = foliar, 120 h, read-out: Pseudaletia separata Walker LC50 (mmol L^−1)

`O=[N+]([O-])C1=C2N(Cc3ccc(Cl)nc3)CCN2[C@@H]2CC[C@H]1O2` [Compound 1a, 9-((6-chloropyrid-3-yl)methyl)-4-nitro-8-oxa-10,11-dihydroimidazo-[2,3-a]-bicyclo-[3,2,1]-oct-3-ene] gave an LC50 [1, 7] of 1.52 µg/mL (≈ 4.71 µM), a mortality at 500 µg/mL ([1]; 24 h) of 100% and an LC50 ([1]; read-out: LC50 against aphids) of 1.52 µg/mL (≈ 4.71 µM). For the same compound, the LC50 [2, 8] was 12.5 µg/mL (≈ 38.7 µM), the mortality at 500 µg/mL ([2]; foliar, 120 h) was 100% and the LC50 ([2]; read-out: LC50 against Pseudaletia separata Walker) was 12.5 µg/mL (≈ 38.7 µM). For the same compound, the “activity against susceptible Niloparvata lugens versus imidacloprid” value [3] was “generally the same as that of imidacloprid”, the Magnitude of resistance [3] was 1.00 and the Relative toxicity [3] was 1.77. The “LD50 (ng/pest)” value [3] was 0.0742 ± 0.0106 ng/pest, the “activity against imidacloprid-resistant Niloparvata lugens versus imidacloprid” value [4] was 50 times and the Magnitude of resistance [4] was 6.64. For the same compound, the Relative toxicity [4] was 50.00, the “LD50 (ng/pest)” value [4] was 0.4925 ± 0.0811 ng/pest and the “mode of action on nicotinic acetylcholine receptor (nAChRs)” value ([5]; conclusion from electrophysiological and isotope marker substitution testing) was “antagonist”. The “agonistic action on nicotinic acetylcholine receptors of Periplaneta americana” value ([5]; electrophysiological testing) was “no agonistic action”, the “inhibition of the agonist response to acetylcholine” value ([5]; receptor preparation not given) was “can inhibit the agonist response to acetylcholine” and the “agonistic action on N1 α 1/β 2 receptors expressed by the oocytes” value [6] was “no agonistic action”.
`O=[N+]([O-])C1=C2N(Cc3cnc(Cl)s3)CCN2[C@H]2CCC[C@@H]1O2` [Compound 2b, 10-((2-chlorothiazol-5-yl)methyl)-4-nitro-9-oxa-11,12-dihydroimidazo-[2,3-a]-bicyclo-[3,3,1]-non-3-ene] was tested, and the mortality at 500 µg/mL ([1]; 24 h) was 98.2% and the mortality at 500 µg/mL ([2]; foliar, 120 h) was 0%.
`O=[N+]([O-])C1=C2N(Cc3ccc(Cl)nc3)CCN2[C@H]2CCC[C@@H]1O2` [Compound 2a, 10-((6-chloropyrid-3-yl)methyl)-4-nitro-9-oxa-11,12-dihydroimidazo-[2,3-a]-bicyclo-[3,3,1]-non-3-ene] was tested, and the mortality at 500 µg/mL ([1]; 24 h) was 87.3%, the mortality at 500 µg/mL ([2]; foliar, 120 h) was 0% and the Magnitude of resistance [3] was 1.00. For the same compound, the Relative toxicity [3] was 0.32, the “LD50 (ng/pest)” value [3] was 4.1440 ± 0.6136 ng/pest and the Magnitude of resistance [4] was 4.58. For the same compound, the Relative toxicity [4] was 1.17 and the “LD50 (ng/pest)” value [4] was 18.9795 ± 2.3501 ng/pest.
`O=[N+]([O-])C1=C2N(Cc3ccc(Cl)cc3)CCN2C2CCCC1O2` (stereo not drawn) [Compound 2d, 10-(4-chlorobenzyl)-4-nitro-9-oxa-11,12-dihydroimidazo-[2,3-a]-bicyclo-[3,3,1]-non-3-ene] was tested, and the “Aphis craccivora Mortality rate (%, 500 mg L^−1)” value ([1]; in vivo) was 38.9% and the “Pseudaletia separata Walker Mortality rate (%, 500 mg L^−1)” value ([2]; in vivo) was 0%.
For `O=[N+]([O-])C1=C2N(Cc3ccccc3)CCN2[C@H]2CCC[C@@H]1O2` [Compound 2c, 10-benzyl-4-nitro-9-oxa-11,12-dihydroimidazo-[2,3-a]-bicyclo-[3,3,1]-non-3-ene], the mortality at 500 µg/mL ([1]; 500 mg L^−1, dipping, after 24 hours) was 55.6% and the mortality at 500 µg/mL ([2]; foliar, 120 h) was 0%.
`O=[N+]([O-])C1=C2N(Cc3cnc(Cl)s3)CCN2[C@@H]2CC[C@H]1O2` [Compound 1b, 9-((2-chlorothiazol-5-yl)methyl)-4-nitro-8-oxa-10,11-dihydroimidazo-[2,3-a]-bicyclo-[3,2,1]-oct-3-ene] was tested, and the mortality at 500 µg/mL ([1]; 24 h) was 100% and the mortality at 500 µg/mL ([2]; foliar, 120 h) was 100%.
In the case of `O=[N+]([O-])C1=C2N(Cc3ccccc3)CCN2[C@@H]2CC[C@H]1O2` [Compound 1c, 9-benzyl-4-nitro-8-oxa-10,11-dihydroimidazo-[2,3-a]-bicyclo-[3,2,1]-oct-3-ene], the mortality at 500 µg/mL ([1]; 24 h) is reported as 13.6% and the mortality at 500 µg/mL ([2]; foliar, 120 h) is reported as 0%.
Compound `O=[N+]([O-])C1=C2N(Cc3ccc(Cl)cc3)CCN2[C@@H]2CC[C@H]1O2` [Compound 1d, 9-(4-chloro-benzyl)-4-nitro-8-oxa-10,11-dihydroimidazo-[2,3-a]-bicyclo-[3,2,1]-oct-3-ene] has a mortality at 500 µg/mL ([1]; 24 h) of 95.7% and a mortality at 500 µg/mL ([2]; foliar, 120 h) of 0%.
Compound `O=[N+]([O-])NC1=NCCN1Cc1ccc(Cl)nc1` [Imidacloprid, reference compound] has an LC50 [1, 7] of 8.93 µg/mL (≈ 34.9 µM), a mortality at 500 µg/mL ([1]; 24 h) of 100% and an LC50 [2, 8] of 38.7 µg/mL (≈ 151 µM). For the same compound, the mortality at 500 µg/mL ([2]; foliar, 120 h) was 100%, the Magnitude of resistance [3] was 1.00 and the Relative toxicity [3] was 1.00. For the same compound, the “LD50 (ng/pest)” value [3] was 0.1316 ± 0.0154 ng/pest, the Magnitude of resistance [4] was 168.40 and the Relative toxicity [4] was 1.00. The “LD50 (ng/pest)” value [4] was 22.1614 ± 3.7522 ng/pest.
